PubChem BioAssay AID192 (DTP/NCI, 2004)
Inconclusive results and toxic doses are left out.

Tested on: BDF1 mice, B16 melanoma ip, median survival T/C
Assay: NCI In Vivo Anticancer Drug Screen. Data for tumor model B16 Melanoma (intraperitoneal) in B6D2F1 (BDF1) mice
Details: endpoint: median survival time, higher = longer survival
Method in brief: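 Mice with transplantable tumors; drug vs vehicle groups; endpoint survival or tumor size; value = T/C.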

[1] = dose: 100.0 mg/kg/injection, schedule: Q01DX009 (ip), vehicle: saline
[2] = dose: 100.0 mg/kg/injection, schedule: Q04DX003 (ip), vehicle: saline
[3] = dose: 200.0 mg/kg/injection, schedule: Q01DX009 (ip), vehicle: saline
[4] = dose: 50.0 mg/kg/injection, schedule: Q01DX009 (ip), vehicle: saline with Tween-80
[5] = dose: 100.0 mg/kg/injection, schedule: Q01DX009 (ip), vehicle: saline with Tween-80
[6] = dose: 100.0 mg/kg/injection, schedule: Q01DX009 (ip), vehicle: Klucel (hydroxypropylcellulose) (HPC)
[7] = dose: 12.5 mg/kg/injection, schedule: Q01DX009 (ip), vehicle: Klucel (hydroxypropylcellulose) (HPC)
[8] = dose: 25.0 mg/kg/injection, schedule: Q01DX009 (ip), vehicle: Klucel (hydroxypropylcellulose) (HPC)
[9] = dose: 50.0 mg/kg/injection, schedule: Q01DX009 (ip), vehicle: Klucel (hydroxypropylcellulose) (HPC)
[10] = dose: 6.25 mg/kg/injection, schedule: Q01DX009 (ip), vehicle: Klucel (hydroxypropylcellulose) (HPC)
[11] = dose: 400.0 mg/kg/injection, schedule: Q01DX009 (ip), vehicle: saline

`Cc1nccc(=O)[nH]1` was tested, and the T/C [1] was 90 % of control, the T/C [2] was 117 % of control and the T/C [3] was 107 % of control. For the same molecule, the T/C (dose: 200.0 mg/kg/injection, schedule: Q04DX003 (ip), vehicle: saline) was 100 % of control.

With `C=C(C)[C@@H]1CC[C@]2(C)CC[C@]3(C)[C@H](CC[C@@H]4[C@@]5(C)CC[C@H](O)C(C)(C)[C@@H]5CC[C@]43C)[C@@H]12` the T/C (dose: 0.75 mg/kg/injection, schedule: Q01DX009 (ip), vehicle: Klucel (hydroxypropylcellulose) (HPC)) was 101 % of control, the T/C (dose: 1.5 mg/kg/injection, schedule: Q01DX009 (ip), vehicle: Klucel (hydroxypropylcellulose) (HPC)) was 95 % of control and the T/C (dose: 3.0 mg/kg/injection, schedule: Q01DX009 (ip), vehicle: Klucel (hydroxypropylcellulose) (HPC)) was 95 % of control.

In the case of `Cc1cc2oc(C)[n+](Cc3ccccc3)c2cc1C`, the T/C [4] was 111 % of control and the T/C [5] was 98 % of control.

With `COc1cc2c(c(OC)c1OC)-c1ccc(OC)c(=O)cc1[C@@H](NC(=O)CF)CC2` the T/C (dose: 0.04 mg/kg/injection, schedule: Q01DX009 (ip), vehicle: saline with Tween-80) was 116 % of control and the T/C (dose: 0.09 mg/kg/injection, schedule: Q01DX009 (ip), vehicle: saline with Tween-80) was 118 % of control.

With `OC1(C#CC2(O)c3ccccc3-c3ccccc32)c2ccccc2-c2ccccc21` the T/C [6] was 122 % of control, the T/C (dose: 200.0 mg/kg/injection, schedule: Q01DX009 (ip), vehicle: Klucel (hydroxypropylcellulose) (HPC)) was 97 % of control and the T/C (dose: 400.0 mg/kg/injection, schedule: Q01DX009 (ip), vehicle: Klucel (hydroxypropylcellulose) (HPC)) was 94 % of control.

In the case of `O=C1C=C(Nc2ccccc2)c2ccccc2C1=O`, the T/C [7] was 93 % of control, the T/C [8] was 105 % of control and the T/C [9] was 88 % of control. The T/C [6] was 87 % of control.

For `C=CCOCC(O)CN(CC(C)C)CC(C)C` (stereo unspecified), the T/C [10] was 98 % of control, the T/C [7] was 104 % of control and the T/C [8] was 100 % of control.

`[N-]=[N+]=C1C(=O)NN=C1c1ccccc1` was tested, and the T/C [6] was 105 % of control.

`CC(=O)OCc1cccnc1` was tested, and the T/C (dose: 50.0 mg/kg/injection, schedule: Q01DX009 (ip), vehicle: saline) was 97 % of control, the T/C [1] was 101 % of control and the T/C [3] was 106 % of control. For the same molecule, the T/C [11] was 107 % of control.

`C=CCN1CCC(C(=O)CC)(c2ccccc2)CC1` was tested, and the T/C (dose: 10.0 mg/kg/injection, schedule: Q04DX003 (ip), vehicle: Klucel (hydroxypropylcellulose) (HPC)) was 111 % of control, the T/C (dose: 20.0 mg/kg/injection, schedule: Q04DX003 (ip), vehicle: Klucel (hydroxypropylcellulose) (HPC)) was 114 % of control and the T/C (dose: 40.0 mg/kg/injection, schedule: Q04DX003 (ip), vehicle: Klucel (hydroxypropylcellulose) (HPC)) was 114 % of control.

With `O[C@H](CN1CC1)[C@@H](O)CN1CC1` the T/C (dose: 0.13 mg/kg/injection, schedule: Q01DX009 (ip), vehicle: saline) was 117 % of control, the T/C (dose: 0.25 mg/kg/injection, schedule: Q01DX009 (ip), vehicle: saline) was 151 % of control and the T/C (dose: 0.5 mg/kg/injection, schedule: Q01DX009 (ip), vehicle: saline) was 166 % of control.

`COc1cc(-c2ccc(N=Nc3cc(S(=O)(=O)O)c4ccccc4c3O)c(OC)c2)ccc1N=Nc1cc(S(=O)(=O)O)c2ccccc2c1O` was tested, and the T/C [1] was 102 % of control, the T/C [3] was 89 % of control and the T/C [11] was 93 % of control.

In the case of `CC[C@@]1(O)C[C@H](OC2CC(N(C)C)C(O)C(C)O2)c2c(O)c3c(c(O)c2[C@H]1OC1CC(N(C)C)C(O)C(C)O1)C(=O)c1cccc(O)c1C3=O` (stereo partly specified), the T/C (dose: 31.2 micrograms/kg/injection, schedule: Q01DX009 (ip), vehicle: Klucel (hydroxypropylcellulose) (HPC)) was 100 % of control and the T/C (dose: 62.5 micrograms/kg/injection, schedule: Q01DX009 (ip), vehicle: Klucel (hydroxypropylcellulose) (HPC)) was 89 % of control.

`C[C@H]1[C@H](O)[C@H]2[C@@H](CCC3=CC(=O)CC[C@@]32C)[C@@H]2CC[C@H](O)[C@@]12C` was tested, and the T/C [5] was 94 % of control and the T/C (dose: 200.0 mg/kg/injection, schedule: Q01DX009 (ip), vehicle: saline with Tween-80) was 100 % of control.

In the case of `O=c1cc2oc3c(O)c(O)ccc3c3c4ccccc4c(=O)c(c1)c23`, the T/C (dose: 12.5 mg/kg/injection, schedule: Q01DX009 (ip), vehicle: saline) was 103 % of control and the T/C (dose: 25.0 mg/kg/injection, schedule: Q01DX009 (ip), vehicle: saline) was 90 % of control.

In the case of `CCOC(=O)C(C)(Br)C(=O)OCC`, the T/C (dose: 25.0 mg/kg/injection, schedule: Q01DX009 (ip), vehicle: saline with Tween-80) was 110 % of control, the T/C (dose: 25.0 mg/kg/injection, schedule: Q04DX003 (ip), vehicle: saline) was 115 % of control and the T/C [4] was 102 % of control. For the same molecule, the T/C (dose: 50.0 mg/kg/injection, schedule: Q04DX003 (ip), vehicle: saline) was 118 % of control, the T/C [5] was 95 % of control and the T/C [2] was 118 % of control.

`Cc1cc(CCl)c(C)c(Br)c1C` was tested, and the T/C [10] was 97 % of control, the T/C [7] was 119 % of control and the T/C [8] was 105 % of control. The T/C [9] was 105 % of control.
